Measured values as given in patent EP4706404A1, “MICROENCAPSULATED NATURAL PRESERVATIVE AND ANTIOXIDANT FOR FATTY FOODS, WITH WALNUT HUSK AND WALNUT TREE LEAF EXTRACT” (Universidad Andres Bello, priority 2023, dated 2024).
Where two headings read alike, the source gives them in different places.

Columns and labels:
Salmonella = conditions: mayonnaise
Source text: (§1) Mayonnaise was made on a laboratory scale using mayonnaise powder, the flowchart is shown in Diagram 3. [formula]
(§2) Where the stability of mayonnaise without any antioxidant (control) was studied, the stability when using a frequently used synthetic antioxidant such as EDTA, and a microparticle of the invention for foods with more than 70% fat, which corresponds to Maltodextrin with capsule as a channeling agent (EH:MD-Capsule). The dose used was in accordance with the food safety regulations (FSR) and corresponded to 5.5 g of microparticles per 2 kilos of mayonnaise. […] Table 9. Mayonnaise formulation for stability tests.

[1] = tested on: mesophilic aerobic microorganisms (AMR); conditions: mayonnaise
Source text: as §1, §2

S. aureus = conditions: mayonnaise

Experimental for HEPG-2: The test consisted of evaluating the cytotoxic effect of walnut husk and leaf extract, in different concentrations, on viability in cell culture. For this, the HEPG-2 line was used as a cell matrix, which are immortalized human liver cells.
To evaluate the effect on viability in cell culture, an assay was performed with the Invitrogen MTT kit (Ref.V13154; lot:1924421), whose technique consists of a colorimetric analysis that measures the metabolic activity of the cell. This assay was carried out following the protocol provided by the kit supplier, using a 96-well plate with HEPG-2 cell culture with an approximate confluence of 80%. Taking the cytotoxic compound SDS 0.2% as a positive control and the cell culture with its medium as a negative control.

## CCCCCCCCCCCCOS(=O)(=O)[O-].[Na+] [SDS]
HEPG-2
  Cell viability: 22.9%
Caco-2 cells
  Cell viability: 3.94± 0.2%

## O=C(O)CN(CCN(CC(=O)O)CC(=O)O)CC(=O)O [synthetic, EDTA]
Salmonella; 4°C, 6 days refrigeration
  Salmonella Title: 0 CFU/gr
Salmonella; 4°C, 13 days refrigeration
  Salmonella Title: 0 CFU/gr
Salmonella; 4°C, 20 days refrigeration
  Salmonella Title: 0 CFU/gr
Salmonella; 4°C, 27 days refrigeration
  Salmonella Title: 0 CFU/gr
Salmonella; Time 0
  Salmonella Title: 0 CFU/gr
[1]; 4°C
  day of conservation from which AMR were detected: 20 days
[1]; 4°C, 6 days refrigeration
  AMR Title: 0 CFU/gr
[1]; 4°C, 13 days refrigeration
  AMR Title: 0 CFU/gr
[1]; 4°C, 20 days refrigeration
  AMR Title: 2x10^4 CFU/gr
[1]; 4°C, 27 days refrigeration
  AMR Title: 1.25 x 10^5 CFU/gr
[1]; Time 0
  AMR Title: 0 CFU/gr
S. aureus; 4°C
  day from which S. aureus develops: 20 days
S. aureus; 4°C, 6 days refrigeration
  S. aureus Title: 0 CFU/gr
S. aureus; 4°C, 13 days refrigeration
  S. aureus Title: 0 CFU/gr
S. aureus; 4°C, 27 days refrigeration
  S. aureus Title: 1.15 x 10^4 CFU/gr
S. aureus; Time 0
  S. aureus Title: 0 CFU/gr
